From ChEMBL document CHEMBL1155868, “N-Benzyl-N-(pyrrolidin-3-yl)carboxamides as a new class of selective dual serotonin/noradrenaline reuptake inhibitors” (Bioorg Med Chem Lett, 2008)

Experiments:
[1] = biological target: Sodium-dependent serotonin transporter (Homo sapiens, UniProt P31645); test: Inhibition of [3H]5HT reuptake at human serotonin transporter expressed in HEK293 cells by scintillation counting; type: cell-based
[2] = biological target: Sodium-dependent noradrenaline transporter (Homo sapiens, UniProt P23975)
Description: Inhibition of [3H]NA reuptake in human noradrenaline transporter expressed in HEK293 cells by scintillation counting

[3] = biological target: Voltage-gated inwardly rectifying potassium channel KCNH2 (Homo sapiens, UniProt Q12809); test: Inhibition of human ERG potassium channel
Cytochrome P450 2D6 = Cytochrome P450 2D6 (Homo sapiens, UniProt P10635); test: Inhibition of CYP2D6; type: ADME
[4] = biological target: Sodium-dependent dopamine transporter (Homo sapiens, UniProt Q01959); test: Inhibition of [3H]DA reuptake at human dopamine transporter expressed in HEK293 cells by scintillation counting; type: cell-based
[5] = Metabolic stability assessed as half life in human liver microsomes; type: ADME, Microsome
in vitro = details: human, hepatocytes
Description: Intrinsic clearance in human hepatocytes assessed per million cells

[6] = Distribution coefficient, log D at pH 7.4; type: physicochemical; details: octanol/water
[7] = Half life in dog at 0.013 mg/kg, po; type: ADME, organism-based, Canis lupus familiaris; set-up: dose 0.013 mg/kg, route oral; details: in vivo
[8] = Bioavailability in dog at 0.013 mg/kg, po; type: ADME, organism-based, Canis lupus familiaris; details: in vivo
Cytochrome P450 2C9 = Cytochrome P450 2C9 (Homo sapiens, UniProt P11712); test: Inhibition of CYP2C9; type: ADME
[9] = Volume of distribution in dog at 0.01 mg/kg, iv; type: ADME, organism-based, Canis lupus familiaris; set-up: dose 0.01 mg/kg, route intravenous; details: in vivo
Cytochrome P450 1A2 = biological target: T1, Cytochrome P450 1A2 (Homo sapiens, UniProt P05177); test: Inhibition of CYP1A2; type: ADME
T1 sequence (P05177 whole entry): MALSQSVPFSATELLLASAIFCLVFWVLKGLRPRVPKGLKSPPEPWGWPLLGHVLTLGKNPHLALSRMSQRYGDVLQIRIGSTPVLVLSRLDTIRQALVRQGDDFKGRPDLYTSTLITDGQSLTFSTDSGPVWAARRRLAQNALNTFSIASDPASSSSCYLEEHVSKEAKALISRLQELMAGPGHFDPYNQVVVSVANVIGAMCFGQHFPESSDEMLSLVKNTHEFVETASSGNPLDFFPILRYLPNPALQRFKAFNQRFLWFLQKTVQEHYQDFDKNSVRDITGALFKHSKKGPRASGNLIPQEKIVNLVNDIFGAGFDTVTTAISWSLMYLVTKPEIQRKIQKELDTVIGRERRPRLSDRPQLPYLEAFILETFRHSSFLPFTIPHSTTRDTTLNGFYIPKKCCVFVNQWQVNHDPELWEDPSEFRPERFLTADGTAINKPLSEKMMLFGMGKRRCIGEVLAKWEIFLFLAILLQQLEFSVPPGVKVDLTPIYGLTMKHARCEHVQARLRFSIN

[10] = Clearance in dog at 0.01 mg/kg, iv; type: ADME, organism-based, Canis lupus familiaris; set-up: dose 0.01 mg/kg, route intravenous; details: in vivo
[11] = Metabolic stability assessed as half life in dog liver microsomes; type: ADME, Canis lupus familiaris, Microsome
Cytochrome P450 2C19 = Cytochrome P450 2C19 (Homo sapiens, UniProt P33261); test: Inhibition of CYP2C19; type: ADME
Cytochrome P450 3A4 = Cytochrome P450 3A4 (Homo sapiens, UniProt P08684); test: Inhibition of CYP3A4; type: ADME
[12] = Half life in dog at 0.01 mg/kg, iv; type: ADME, organism-based, Canis lupus familiaris; set-up: dose 0.01 mg/kg, route intravenous; details: in vivo
[13] = Dissociation constant, pKa of the compound; type: physicochemical

Chain of Voltage-gated inwardly rectifying potassium channel KCNH2 (Q12809 whole entry): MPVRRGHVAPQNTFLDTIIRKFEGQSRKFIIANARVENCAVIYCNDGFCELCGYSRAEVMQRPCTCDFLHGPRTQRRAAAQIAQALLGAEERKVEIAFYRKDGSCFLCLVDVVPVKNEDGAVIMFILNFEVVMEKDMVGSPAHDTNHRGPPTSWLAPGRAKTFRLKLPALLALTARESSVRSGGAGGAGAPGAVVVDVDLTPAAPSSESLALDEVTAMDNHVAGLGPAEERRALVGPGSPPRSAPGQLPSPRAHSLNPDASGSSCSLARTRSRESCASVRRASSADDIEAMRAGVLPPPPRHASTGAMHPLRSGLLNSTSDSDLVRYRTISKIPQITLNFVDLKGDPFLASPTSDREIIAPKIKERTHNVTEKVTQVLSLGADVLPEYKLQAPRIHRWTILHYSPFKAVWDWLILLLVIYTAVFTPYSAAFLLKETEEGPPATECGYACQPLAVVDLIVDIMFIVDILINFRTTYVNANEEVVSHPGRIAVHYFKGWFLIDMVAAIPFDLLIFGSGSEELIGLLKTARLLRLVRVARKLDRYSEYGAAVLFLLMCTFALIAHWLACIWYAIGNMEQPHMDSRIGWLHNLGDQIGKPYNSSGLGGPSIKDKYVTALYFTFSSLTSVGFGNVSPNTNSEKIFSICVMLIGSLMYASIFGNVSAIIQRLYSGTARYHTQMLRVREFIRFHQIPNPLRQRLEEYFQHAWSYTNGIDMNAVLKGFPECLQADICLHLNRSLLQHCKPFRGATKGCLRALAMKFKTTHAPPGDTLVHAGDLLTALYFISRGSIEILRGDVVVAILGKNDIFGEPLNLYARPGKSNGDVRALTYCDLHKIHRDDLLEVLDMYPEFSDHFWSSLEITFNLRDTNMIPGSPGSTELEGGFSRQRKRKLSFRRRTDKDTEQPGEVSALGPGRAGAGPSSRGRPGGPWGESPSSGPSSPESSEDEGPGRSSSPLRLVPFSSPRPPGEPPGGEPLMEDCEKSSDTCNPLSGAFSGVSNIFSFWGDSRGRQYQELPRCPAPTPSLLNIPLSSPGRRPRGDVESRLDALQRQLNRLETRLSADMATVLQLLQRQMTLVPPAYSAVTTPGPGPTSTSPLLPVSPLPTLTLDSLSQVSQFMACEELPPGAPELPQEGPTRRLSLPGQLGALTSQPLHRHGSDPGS
Chain of Sodium-dependent dopamine transporter (Q01959 whole entry): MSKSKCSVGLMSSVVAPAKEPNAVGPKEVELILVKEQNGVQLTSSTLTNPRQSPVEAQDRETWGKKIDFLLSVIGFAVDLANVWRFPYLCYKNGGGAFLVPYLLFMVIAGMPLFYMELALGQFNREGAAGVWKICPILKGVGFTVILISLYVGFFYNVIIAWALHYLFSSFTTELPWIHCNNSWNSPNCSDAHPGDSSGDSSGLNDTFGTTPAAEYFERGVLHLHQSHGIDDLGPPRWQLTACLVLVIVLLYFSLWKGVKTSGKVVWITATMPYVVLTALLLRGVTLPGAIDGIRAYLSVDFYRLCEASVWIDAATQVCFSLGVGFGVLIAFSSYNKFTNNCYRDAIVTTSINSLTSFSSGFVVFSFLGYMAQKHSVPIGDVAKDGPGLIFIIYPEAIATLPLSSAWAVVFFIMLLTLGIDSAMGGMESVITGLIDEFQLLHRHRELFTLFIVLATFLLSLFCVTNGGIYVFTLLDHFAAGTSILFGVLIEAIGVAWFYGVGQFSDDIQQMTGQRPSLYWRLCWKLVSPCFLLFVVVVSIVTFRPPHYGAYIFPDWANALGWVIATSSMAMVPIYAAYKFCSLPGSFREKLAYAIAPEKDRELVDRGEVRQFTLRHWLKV
Chain of Cytochrome P450 2D6 (P10635 whole entry): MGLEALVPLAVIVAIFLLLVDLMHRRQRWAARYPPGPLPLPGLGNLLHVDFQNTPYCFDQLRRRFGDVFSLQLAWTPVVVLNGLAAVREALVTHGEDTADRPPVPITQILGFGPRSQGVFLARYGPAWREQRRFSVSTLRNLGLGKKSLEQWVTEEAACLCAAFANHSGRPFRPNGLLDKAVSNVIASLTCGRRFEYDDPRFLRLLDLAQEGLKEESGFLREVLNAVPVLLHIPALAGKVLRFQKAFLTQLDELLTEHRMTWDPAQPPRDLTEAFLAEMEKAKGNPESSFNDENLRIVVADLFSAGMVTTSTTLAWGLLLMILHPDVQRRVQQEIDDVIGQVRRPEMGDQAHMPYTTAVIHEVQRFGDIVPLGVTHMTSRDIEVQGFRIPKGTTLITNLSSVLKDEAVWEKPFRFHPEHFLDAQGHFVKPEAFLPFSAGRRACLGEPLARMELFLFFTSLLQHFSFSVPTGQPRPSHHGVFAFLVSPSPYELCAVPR
Chain of Sodium-dependent noradrenaline transporter (P23975 whole entry): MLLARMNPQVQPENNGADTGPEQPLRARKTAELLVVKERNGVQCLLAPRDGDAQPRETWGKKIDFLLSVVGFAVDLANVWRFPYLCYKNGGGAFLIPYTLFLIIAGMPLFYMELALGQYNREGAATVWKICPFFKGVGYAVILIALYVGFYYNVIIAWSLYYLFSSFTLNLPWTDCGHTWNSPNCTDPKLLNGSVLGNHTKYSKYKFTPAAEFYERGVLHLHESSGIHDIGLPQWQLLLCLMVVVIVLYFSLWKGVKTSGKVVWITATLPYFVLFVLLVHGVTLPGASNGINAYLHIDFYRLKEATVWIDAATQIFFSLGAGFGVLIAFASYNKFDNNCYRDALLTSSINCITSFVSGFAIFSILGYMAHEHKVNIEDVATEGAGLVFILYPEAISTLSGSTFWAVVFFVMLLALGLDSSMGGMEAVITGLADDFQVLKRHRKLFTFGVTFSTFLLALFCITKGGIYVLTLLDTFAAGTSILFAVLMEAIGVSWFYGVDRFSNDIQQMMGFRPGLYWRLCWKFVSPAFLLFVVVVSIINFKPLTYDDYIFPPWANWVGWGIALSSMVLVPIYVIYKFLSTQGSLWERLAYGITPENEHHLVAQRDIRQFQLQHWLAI
Chain of Sodium-dependent serotonin transporter (P31645 whole entry): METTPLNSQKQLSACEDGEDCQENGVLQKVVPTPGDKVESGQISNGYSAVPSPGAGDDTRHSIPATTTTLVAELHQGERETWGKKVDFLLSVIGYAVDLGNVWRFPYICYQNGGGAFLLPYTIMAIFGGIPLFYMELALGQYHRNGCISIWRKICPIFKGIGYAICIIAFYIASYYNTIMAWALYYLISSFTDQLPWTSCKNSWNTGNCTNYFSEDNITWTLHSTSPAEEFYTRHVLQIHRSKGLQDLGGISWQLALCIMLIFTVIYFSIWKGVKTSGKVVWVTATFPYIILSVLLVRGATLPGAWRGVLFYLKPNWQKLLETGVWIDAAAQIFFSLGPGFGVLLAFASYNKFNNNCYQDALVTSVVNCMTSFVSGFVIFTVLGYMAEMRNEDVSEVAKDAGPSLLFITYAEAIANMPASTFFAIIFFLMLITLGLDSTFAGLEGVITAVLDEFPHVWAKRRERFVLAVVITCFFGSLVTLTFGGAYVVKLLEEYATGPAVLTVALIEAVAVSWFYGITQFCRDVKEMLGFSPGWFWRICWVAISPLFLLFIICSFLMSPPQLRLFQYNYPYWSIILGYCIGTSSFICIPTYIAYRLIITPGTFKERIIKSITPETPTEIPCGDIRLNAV
Chain of Cytochrome P450 3A4 (P08684 whole entry): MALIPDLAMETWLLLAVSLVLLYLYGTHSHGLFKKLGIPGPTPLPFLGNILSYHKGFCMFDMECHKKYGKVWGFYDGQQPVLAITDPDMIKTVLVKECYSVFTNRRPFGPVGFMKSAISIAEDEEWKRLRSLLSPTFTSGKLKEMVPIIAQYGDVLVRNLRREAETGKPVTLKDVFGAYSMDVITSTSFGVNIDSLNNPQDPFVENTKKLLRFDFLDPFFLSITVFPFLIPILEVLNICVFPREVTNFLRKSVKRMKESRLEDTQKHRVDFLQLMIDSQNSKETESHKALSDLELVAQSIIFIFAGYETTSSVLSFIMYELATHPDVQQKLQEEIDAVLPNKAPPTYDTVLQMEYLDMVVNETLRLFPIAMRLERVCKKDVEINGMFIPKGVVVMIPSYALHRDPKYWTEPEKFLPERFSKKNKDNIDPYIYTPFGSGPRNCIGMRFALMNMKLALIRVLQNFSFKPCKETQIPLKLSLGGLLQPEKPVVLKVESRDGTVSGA
Chain of Cytochrome P450 2C9 (P11712 whole entry): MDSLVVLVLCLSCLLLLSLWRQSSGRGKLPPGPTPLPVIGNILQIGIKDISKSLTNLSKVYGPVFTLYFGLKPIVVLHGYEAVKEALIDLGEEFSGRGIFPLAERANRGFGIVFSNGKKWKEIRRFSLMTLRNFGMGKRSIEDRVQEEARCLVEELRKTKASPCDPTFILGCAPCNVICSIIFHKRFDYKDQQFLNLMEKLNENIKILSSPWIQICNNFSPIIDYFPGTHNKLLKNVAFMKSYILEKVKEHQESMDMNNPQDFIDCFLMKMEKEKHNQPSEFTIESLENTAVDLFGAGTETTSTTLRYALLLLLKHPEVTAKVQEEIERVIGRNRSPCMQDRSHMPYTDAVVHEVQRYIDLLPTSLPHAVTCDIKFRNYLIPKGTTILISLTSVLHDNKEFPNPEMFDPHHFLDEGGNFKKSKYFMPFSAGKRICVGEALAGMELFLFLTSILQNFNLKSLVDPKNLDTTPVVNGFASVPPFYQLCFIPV
Chain of Cytochrome P450 2C19 (P33261 whole entry): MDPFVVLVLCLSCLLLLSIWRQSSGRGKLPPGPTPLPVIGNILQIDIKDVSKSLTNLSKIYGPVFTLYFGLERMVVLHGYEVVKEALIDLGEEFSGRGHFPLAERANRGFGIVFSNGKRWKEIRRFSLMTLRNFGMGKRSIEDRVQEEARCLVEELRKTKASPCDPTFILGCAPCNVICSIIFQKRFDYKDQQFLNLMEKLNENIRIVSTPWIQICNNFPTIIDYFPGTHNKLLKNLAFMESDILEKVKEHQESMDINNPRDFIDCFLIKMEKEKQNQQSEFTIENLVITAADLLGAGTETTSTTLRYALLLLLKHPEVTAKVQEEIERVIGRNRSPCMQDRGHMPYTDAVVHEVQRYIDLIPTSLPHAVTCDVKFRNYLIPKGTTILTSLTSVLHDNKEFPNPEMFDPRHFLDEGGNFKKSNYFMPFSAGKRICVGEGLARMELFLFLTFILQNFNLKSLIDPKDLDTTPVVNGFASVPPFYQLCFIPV

SMILES	IC50 [1]	IC50 [2]	other results
CC(C)CC(=O)N(Cc1ccc(Cl)cc1Cl)[C@H]1CCNC1	93 nM	31 nM	–
CC(C)C(=O)N(Cc1ccc(Cl)cc1Cl)[C@H]1CCNC1	13 nM	28 nM	IC50 [3]: 40200 nM; IC50 (Cytochrome P450 2D6): 21800 nM; IC50 [4]: > 40000 nM; half-life [5]: > 2 h; hepatocyte CLint (in vitro): 4.8 µL/min/1e6 cells; logD [6]: 0.8
CC(C)C(=O)N(Cc1cc(Cl)cc(Cl)c1Cl)[C@H]1CCNC1	44 nM	29 nM	IC50 [4]: 21600 nM
CCCC(=O)N(Cc1ccc(Cl)cc1Cl)[C@H]1CCNC1	72 nM	31 nM	–
CCC(=O)N(Cc1ccc(Cl)cc1Cl)[C@H]1CCNC1	25 nM	60 nM	–
CC(C)C(=O)N(Cc1ccc(Cl)c(Cl)c1Cl)[C@H]1CCNC1	5 nM	16 nM	IC50 [3]: > 6870 nM; IC50 (Cytochrome P450 2D6): 17600 nM; IC50 [4]: 5870 nM; half-life [5]: > 2 h; hepatocyte CLint (in vitro): 8.8 µL/min/1e6 cells; logD [6]: 1.3
CC(C)(C)CC(=O)N(Cc1ccc(Cl)cc1Cl)[C@H]1CCNC1	27 nM	39 nM	IC50 [4]: 10200 nM
CC(C)C(=O)N(Cc1ccc(F)cc1Cl)[C@H]1CCNC1	161 nM	98 nM	–
O=C(C1CCC1)N(Cc1ccc(Cl)cc1Cl)[C@H]1CCNC1	41 nM	64 nM	–
O=C(C1CCOCC1)N(Cc1cccc(Cl)c1Cl)[C@H]1CCNC1	123 nM	300 nM	–
O=C(c1ccccc1)N(Cc1ccc(Cl)cc1Cl)[C@H]1CCNC1	195 nM	94 nM	–
CC(C)CC(=O)N(Cc1cccc(Cl)c1Cl)[C@H]1CCNC1	17 nM	62 nM	–
CC(C)C(=O)N(Cc1ccc(F)cc1F)[C@H]1CCNC1	> 400 nM	> 400 nM	–
CC(C)(C)C(=O)N(Cc1cccc(Cl)c1Cl)[C@H]1CCNC1	26 nM	> 322 nM	–
CC(C)C(=O)N(Cc1ccccc1-c1ccccc1)[C@H]1CCNC1	> 400 nM	14 nM	–
O=C(C1CC1)N(Cc1ccc(Cl)cc1Cl)[C@H]1CCNC1	38 nM	25 nM	–
CC(C)C(=O)N(Cc1ccccc1Cl)[C@H]1CCNC1	91 nM	114 nM	–
CCCCC(=O)N(Cc1ccc(Cl)cc1Cl)[C@H]1CCNC1	33 nM	70 nM	–
CC(C)C(=O)N(Cc1cccc(Cl)c1Cl)[C@H]1CCNC1	–	–	IC50 [3]: 24700 nM; half-life [7]: 5.7 h; IC50 (Cytochrome P450 2D6): 27100 nM; bioavailability [8]: 91%; IC50 [4]: 1270 nM; Activity (Cytochrome P450 2C9): Not Active; Vd [9]: 0.5 L/kg; half-life [5]: > 2 h; Activity (Cytochrome P450 1A2): Not Active; clearance [10]: 1.1 mL/min/kg; half-life [11]: 0.583 h; Activity (Cytochrome P450 2C19): Not Active; IC50 (Cytochrome P450 3A4): 17900 nM; hepatocyte CLint (in vitro): 2.7 µL/min/1e6 cells; logD [6]: 0.8; half-life [12]: 5.7 h; pKa [13]: 9.4
CC(C)C(=O)N(Cc1cccc(Cl)c1Cl)[C@@H]1CCNC1	5 nM	–	IC50 [4]: 1120 nM
CC(C)(C)C(=O)N(Cc1ccc(Cl)cc1Cl)[C@H]1CCNC1	41 nM	92 nM	–
CC(C)C(=O)N(Cc1ccc(C(F)(F)F)cc1F)[C@H]1CCNC1	24 nM	> 400 nM	–
